The target in this assay is T1, human MRGPRX2 (Homo sapiens, UniProt Q96LB1).
T1 sequence (Q96LB1 1-330): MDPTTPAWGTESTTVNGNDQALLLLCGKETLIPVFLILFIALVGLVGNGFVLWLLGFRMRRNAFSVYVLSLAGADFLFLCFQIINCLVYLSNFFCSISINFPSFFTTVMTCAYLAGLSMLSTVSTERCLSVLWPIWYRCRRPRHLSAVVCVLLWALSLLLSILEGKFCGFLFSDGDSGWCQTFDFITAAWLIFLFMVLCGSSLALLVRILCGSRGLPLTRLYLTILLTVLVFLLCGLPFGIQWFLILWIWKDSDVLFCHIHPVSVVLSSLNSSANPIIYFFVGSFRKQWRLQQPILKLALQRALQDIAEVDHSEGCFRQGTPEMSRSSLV
Kind of assay: Ca2+ mobilization assay (FLIPR TETRA): inhibition of Cortistatin-14 mediated MRGPRX2 activation. (A change in cytosolic calcium serves as a functional read-out for many receptors and channels.)

In the case of `C[C@@H](C(=O)Nc1ccc(C(F)(F)c2ccc(F)cc2)cn1)N1CCC(F)(F)[C@@H](c2cc[n+]([O-])cc2)C1` [Example 127, 4-((S)-1-((S)-1-((5-(difluoro(4-fluorophenyl)methyl)pyridin-2-yl)amino)-1-oxopropan-2-yl)-4,4-difluoropiperidin-3-yl)pyridine 1-oxide], the IC50 – broadly, the concentration needed to halve the response being measured – lay in the range of 10 to 100 nM.
With `C[C@@H](C(=O)Nc1ccc(C(=O)c2ccc(F)cc2)cn1)N1CCC(F)(F)[C@@H](c2cc[n+]([O-])cc2)C1` [Example 128, 4-((S)-4,4-difluoro-1-((S)-1-((5-(4-fluorobenzoyl)pyridin-2-yl)amino)-1-oxopropan-2-yl)piperidin-3-yl)pyridine 1-oxide], the half-maximal inhibitory concentration (IC50) lay within 100 to 3160 nM.
On the same count and under the same terms, the figure for `CC(C(=O)Nc1ccc(C(O)c2ccc(F)cc2)cn1)N1CCC(F)(F)[C@@H](c2cc[n+]([O-])cc2)C1` (stereo partly drawn) [Example 129, 4-((3S)-4,4-difluoro-1-(1-((5-((4-fluorophenyl) (hydroxy)methyl)pyridin-2-yl)amino)-1-oxopropan-2-yl)piperidin-3-yl)pyridine 1-oxide] is 3160 to 31600 nM; for `C[C@@H](C(=O)Nc1ccc(Oc2c(F)cccc2F)cn1)N1CCC(F)(F)[C@@H](c2cc[n+]([O-])cc2)C1` [Example 130, 4-((S)-1-((S)-1-((5-(2,6-difluorophenoxy)pyridin-2-yl)amino)-1-oxopropan-2-yl)-4,4-difluoropiperidin-3-yl)pyridine 1-oxide] it is at most 10 nM; for `C[C@@H](C(=O)Nc1ccc(Oc2ccc(F)c(F)c2F)cn1)N1CCC(F)(F)[C@@H](c2cc[n+]([O-])cc2)C1` [Example 131, 4-((S)-4,4-difluoro-1-((S)-1-oxo-1-((5-(2,3,4-trifluorophenoxy)pyridin-2-yl)amino)propan-2-yl)piperidin-3-yl)pyridine 1-oxide] it is at most 10 nM.
In turn, `C[C@@H](C(=O)Nc1cnc(Oc2ccc(F)cc2F)cn1)N1CCC(F)(F)[C@@H](c2cc[n+]([O-])cc2)C1` [Example 132, 4-((S)-1-((S)-1-((5-(2,4-difluorophenoxy)pyrazin-2-yl)amino)-1-oxopropan-2-yl)-4,4-difluoropiperidin-3-yl)pyridine 1-oxide] gave an IC50 of at most 10 nM. For the same molecule, the pIC50 (usually −log10 of the IC50, conventionally taken in molar units) ([…], agonist Cortistatin-14 at 4×EC50, 30 min incubation at 37° C., mean of a minimum of 2 experiments) was determined as 8.6.
Molecule `C[C@@H](C(=O)Nc1ccc(OCC2CC2)cn1)N1CCC(F)(F)[C@@H](c2c[nH]c(=O)cn2)C1` [Example 133, (S)—N-(5-(cyclopropylmethoxy)pyridin-2-yl)-2-((R)-4,4-difluoro-3-(5-oxo-4,5-dihydropyrazin-2-yl)piperidin-1-yl)propanamide] showed an IC50 of at most 10 nM.
`C[C@@H](C(=O)Nc1ccc(OCC2CC2)nn1)N1CCC(F)(F)[C@@H](c2c[nH]c(=O)cn2)C1` [Example 134, (S)-N-(6-(cyclopropylmethoxy)pyridazin-3-yl)-2-((R)-4,4-difluoro-3-(5-oxo-4,5-dihydropyrazin-2-yl)piperidin-1-yl)propanamide] registered an IC50 of 10 to 100 nM.
`C[C@@H](C(=O)Nc1ccc(F)cn1)N1CCC(F)(F)[C@@H](c2c[nH]c(=O)cn2)C1` [Example 135, (S)-2-((R)-4,4-difluoro-3-(5-oxo-4,5-dihydropyrazin-2-yl)piperidin-1-yl)-N-(5-fluoropyridin-2-yl)propanamide] gave a half-maximal inhibitory concentration (IC50) of 10 to 100 nM.
As to `C[C@@H](C(=O)Nc1ccc(Cl)cn1)N1CCC(F)(F)[C@@H](c2c[nH]c(=O)cn2)C1` [Example 136, (S)-N-(5-chloropyridin-2-yl)-2-((R)-4,4-difluoro-3-(5-oxo-4,5-dihydropyrazin-2-yl)piperidin-1-yl)propanamide], the IC50 fell in the range of 100 to 3160 nM.
Molecule `C[C@@H](C(=O)Nc1ccc(C2CC2)cn1)N1CCC(F)(F)[C@@H](c2c[nH]c(=O)cn2)C1` [Example 137, (S)-N-(5-cyclopropylpyridin-2-yl)-2-((R)-4,4-difluoro-3-(5-oxo-4,5-dihydropyrazin-2-yl)piperidin-1-yl)propanamide] had an IC50 of 100 to 3160 nM.
`C[C@@H](C(=O)Nc1ccc(OCC2CC2)cn1)N1CCC(F)(F)[C@@H](c2c[nH]c(=O)c(N)c2)C1` [Example 138, (S)-2-((S)-3-(5-amino-6-oxo-1,6-dihydropyridin-3-yl)-4,4-difluoropiperidin-1-yl)-N-(5-(cyclopropylmethoxy)pyridin-2-yl)propanamide]: the IC50 lay within 10 to 100 nM.
Same read-out and setting: the figure for `CC(C(=O)Nc1ccc(Oc2ccccc2)cn1)N1CCC(F)(F)C(c2c[nH]c(=O)c(N)c2)C1` (centres unmarked) [Example 139, 2-(3-(5-amino-6-oxo-1,6-dihydropyridin-3-yl)-4,4-difluoropiperidin-1-yl)-N-(5-phenoxypyridin-2-yl)propanamide] is 10 to 100 nM; for `C[C@@H](C(=O)Nc1ccc(OCC2CC2)nn1)N1CCC(F)(F)[C@@H](c2c[nH]c(=O)c(N)c2)C1` [Example 140, (S)-2-((S)-3-(5-amino-6-oxo-1,6-dihydropyridin-3-yl)-4,4-difluoropiperidin-1-yl)-N-(6-(cyclopropylmethoxy)pyridazin-3-yl)propanamide] it is 10 to 100 nM; for `C[C@@H](C(=O)Nc1ccc(Cl)cn1)N1CCC(F)(F)[C@@H](c2c[nH]c(=O)c(N)c2)C1` [Example 141, (S)-2-((S)-3-(5-amino-6-oxo-1,6-dihydropyridin-3-yl)-4,4-difluoropiperidin-1-yl)-N-(5-chloropyridin-2-yl)propanamide] it is 100 to 3160 nM.
On to `C[C@@H](C(=O)Nc1ccc(F)cn1)N1CCC(F)(F)[C@@H](c2c[nH]c(=O)c(N)c2)C1` [Example 142, (S)-2-((S)-3-(5-amino-6-oxo-1,6-dihydropyridin-3-yl)-4,4-difluoropiperidin-1-yl)-N-(5-fluoropyridin-2-yl)propanamide], for which the IC50 fell in the range of 100 to 3160 nM.
Turning to `C[C@@H](C(=O)Nc1ccc(F)cn1)N1CCC(F)(F)[C@@H](c2cc(N)c(=O)[nH]n2)C1` [Example 143, (S)-2-((R)-3-(5-amino-6-oxo-1,6-dihydropyridazin-3-yl)-4,4-difluoropiperidin-1-yl)-N-(5-fluoropyridin-2-yl)propanamide], the IC50 lay in the range of 10 to 100 nM.
The same measure, in the same setting: to `C[C@@H](C(=O)Nc1ccc(OCC2CC2)cn1)N1CCC(F)(F)[C@@H](c2ccc(=O)[nH]n2)C1` [Example 145, (S)—N-(5-(cyclopropylmethoxy)pyridin-2-yl)-2-((R)-4,4-difluoro-3-(6-oxo-1,6-dihydropyridazin-3-yl)piperidin-1-yl)propanamide] belongs 10 to 100 nM.
The molecule `C[C@@H](C(=O)Nc1ccc(OCC2CC2)nn1)N1CCC(F)(F)[C@@H](c2ccc(=O)[nH]n2)C1` [Example 146, (S)-N-(6-(cyclopropylmethoxy)pyridazin-3-yl)-2-((R)-4,4-difluoro-3-(6-oxo-1,6-dihydropyridazin-3-yl)piperidin-1-yl)propanamide] had an IC50 of 10 to 100 nM.
Same read-out and setting: the figure for `C[C@@H](C(=O)Nc1ccc(C2CC2)cn1)N1CCC(F)(F)[C@@H](c2ccc(=O)[nH]n2)C1` [Example 147] is 100 to 3160 nM; for `C[C@@H](C(=O)Nc1ccc(F)cn1)N1CCC(F)(F)[C@@H](c2ccc(=O)[nH]n2)C1` [Example 148, (S)-2-((R)-4,4-difluoro-3-(6-oxo-1,6-dihydropyridazin-3-yl)piperidin-1-yl)-N-(5-fluoropyridin-2-yl)propanamide] it is 100 to 3160 nM.
Consider `C[C@@H](C(=O)Nc1ccc(Cl)cn1)N1CCC(F)(F)[C@@H](c2ccc(=O)[nH]n2)C1` [Example 149, (S)-N-(5-chloropyridin-2-yl)-2-((R)-4,4-difluoro-3-(6-oxo-1,6-dihydropyridazin-3-yl)piperidin-1-yl)propanamide], for which the IC50 was in the range of 100 to 3160 nM.
`C[C@@H](C(=O)Nc1ccc(OCC2CC2)cn1)N1CCC(F)(F)[C@@H](c2ccc(=O)n(C)c2)C1` [Example 150, (S)—N-(5-(cyclopropylmethoxy)pyridin-2-yl)-2-((S)-4,4-difluoro-3-(1-methyl-6-oxo-1,6-dihydropyridin-3-yl)piperidin-1-yl)propanamide] gave an IC50 of 10 to 100 nM.
The same measure, in the same setting: to `C[C@@H](C(=O)Nc1ccc(F)cn1)N1CCC(F)(F)[C@@H](c2c[nH]c(=O)c(CC(F)(F)F)c2)C1` [Example 151, (S)-2-((S)-4,4-difluoro-3-(6-oxo-5-(2,2,2-trifluoroethyl)-1,6-dihydropyridin-3-yl)piperidin-1-yl)-N-(5-fluoropyridin-2-yl)propanamide] belongs 10 to 100 nM.
For `C[C@@H](C(=O)Nc1ccc(OCC2CC2)cn1)N1CCC(F)(F)[C@@H](c2c[nH]c(=O)c(C(C)(C)O)c2)C1` [Example 152, (S)—N-(5-(cyclopropylmethoxy)pyridin-2-yl)-2-((S)-4,4-difluoro-3-(5-(2-hydroxypropan-2-yl)-6-oxo-1,6-dihydropyridin-3-yl)piperidin-1-yl)propanamide], the IC50 was in the range of 10 to 100 nM.
In the case of `C[C@@H](C(=O)Nc1ccc(F)cn1)N1CCC(F)(F)[C@@H](c2c[nH]c(=O)c(CO)c2)C1` [Example 153, (S)-2-((S)-4,4-difluoro-3-(5-(hydroxymethyl)-6-oxo-1,6-dihydropyridin-3-yl)piperidin-1-yl)-N-(5-fluoropyridin-2-yl)propanamide], the IC50 is 100 to 3160 nM.
As for `C[C@@H](C(=O)Nc1ccc(OCC2CC2)nn1)N1CCC(F)(F)C(c2c[nH]c(=O)c(CO)c2)C1` (stereo partly drawn) [Example 154, (S)-N-(6-(cyclopropylmethoxy)pyridazin-3-yl)-2-(4,4-difluoro-3-(5-(hydroxymethyl)-6-oxo-1,6-dihydropyridin-3-yl)piperidin-1-yl)propanamide], the concentration for half-maximal inhibition (IC50) was in the range of 100 to 3160 nM.
Same read-out and setting: to `CC(C(=O)Nc1ccc(Cl)cn1)N1CCC(F)(F)C(c2c[nH]c(=O)c(CO)c2)C1` (centres unmarked) [Example 155, N-(5-chloropyridin-2-yl)-2-(4,4-difluoro-3-(5-(hydroxymethyl)-6-oxo-1,6-dihydropyridin-3-yl)piperidin-1-yl)propanamide] belongs 100 to 3160 nM.

The values above are taken from patent US11976057B2, “MrgX2 antagonists” (GlaxoSmithKline Intellectual Property Development Limited, priority 2020, dated 2024).
